Data taken from PubChem BioAssay (NCI).
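Cells were grown in 96-well plates and exposed to each compound for 48 hours at five concentrations; endpoints were interpolated linearly between bracketing concentrations, or set to the highest concentration if not reached. TGI marks complete inhibition of growth.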

Tests used:
Experiment in all cases: NCI anticancer screen, dose series, 48 h
[1] = tested on: A549 NSCLC
[2] = tested on: ACHN renal
[3] = tested on: CCRF-CEM leukemia
[4] = tested on: HL-60(TB) leukemia
[5] = tested on: KM12 colon
[6] = tested on: MALME-3M melanoma
[7] = tested on: NCI-H23 lung
[8] = tested on: SK-MEL-28 melanoma
[9] = tested on: TK-10 renal
[10] = tested on: UO-31 renal

Row | Structure (SMILES) | TGI [1] [µM] | TGI [2] [µM] | TGI [3] [µM] | TGI [4] [µM] | TGI [5] [µM] | TGI [6] [µM] | TGI [7] [µM] | TGI [8] [µM] | TGI [9] [µM] | TGI [10] [µM]
1 | O=C(C=P(c1ccccc1)(c1ccccc1)c1ccccc1)c1ccc(-c2cccc([N+](=O)[O-])c2)s1 | > 100 | > 100 | > 100 | 59.6 | > 100 | > 100 | > 100 | > 100 | > 100 | > 100
2 | CCOC(=O)c1c(NC(=O)c2cccs2)sc2c1CCCC2 | > 100 | > 100 | > 100 | > 100 | > 100 | > 74.5 | > 100 | > 100 | > 86.1 | > 100
3 | C/C(=N\NC(=S)N1CCCCC1)c1nc2ncccc2[nH]1 | 96.4 | > 100 | 17.2 | 19.1 | > 100 | > 100 | 57.5 | 37.7 | 68.4 | > 100
4 | CCCCc1c(N(C)C)c(OC(C)=O)c(-c2cn(C)c3ccccc23)oc1=O | > 100 | > 100 | > 100 | 51.1 | 37.5 | 62.3 | 56.7 | 57.9 | > 100 | 53
5 | CC(C)C(=O)[C@@]1(C)SC[C@H]2CCN=C21 | > 100 | > 100 | > 100 | > 100 | > 100 | > 100 | > 100 | > 100 | > 100 | > 100
6 | COC(=O)C1=C(C)NC2=C(C(=O)c3ccccc32)C1c1cn(-c2ccccc2)nc1-c1ccccc1 (centres undefined) | > 100 | > 100 | > 100 | > 100 | > 100 | > 100 | > 100 | > 100 | > 100 | > 100
7 | CN(CC(=O)O)c1ncc2c(n1)-c1ccccc1SC2 | > 100 | > 100 | > 100 | > 100 | > 100 | > 100 | > 100 | > 100 | > 100 | > 100
8 | CCN(CC)CC1CCCCCCCCCCC1=O (centres undefined) | > 100 | > 100 | > 100 | > 100 | > 100 | > 100 | > 100 | > 100 | > 100 | > 100
9 | CC(=O)N(C)c1ccc(Nc2cc(C)[nH]c3ccc4ncnc4c23)cc1 | 21.7 | 16.3 | 34.9 | 18.9 | 27.6 | 17.5 | 28 | 36.5 | 48.3 | 56.3
10 | CC1=CC(C)C/C=C/C2C3OC3(C)C(C)C3C(Cc4c[nH]c5ccccc45)NC(=O)C23C(=O)C=CC(=O)C1O (centres undefined) | 26.6 | 2.73 | 3.02 | 5.55 | 30 | 4.19 | 28.5 | 38.2 | 3.39 | 6.05
11 | COC(=O)CCC1=CCC2(SC)C(=O)Nc3cccc1c32 (centres undefined) | > 100 | > 100 | > 100 | > 100 | > 100 | > 100 | > 100 | > 100 | > 100 | > 100
12 | CCOC(=O)c1c(-c2ccc(OC)cc2)c(C#N)c(=S)n(C2OC(COC(C)=O)C(OC(C)=O)C(OC(C)=O)C2OC(C)=O)c1-c1ccccc1 (centres undefined) | > 100 | > 100 | > 100 | > 100 | > 100 | > 100 | > 100 | > 100 | > 100 | > 100
13 | Cc1cc(C)n(C(=C(C(Cl)=C(Cl)Cl)[N+](=O)[O-])n2nc(C)cc2C)n1 | 11.4 | 8.8 | 5.8 | 3.92 | 13.9 | 7.86 | 12.8 | 19.7 | 9.36 | 11.3
14 | CC(C)(C)OC(=O)N1CCc2[nH][nH]c(=O)c2C1 | > 100 | – | > 100 | > 100 | > 100 | > 100 | > 100 | > 100 | > 100 | > 100
15 | CCCn1c2ccccc2c2ccc3c(c21)C(=O)C=CC3=O | > 10 | 3.59 | 0.47 | > 2.27 | > 10 | 4.02 | 5.99 | > 3.16 | 3.76 | > 10
16 | CC(=O)Nc1ccc(N2C(=O)/C(=C\c3cccc(Oc4ccccc4)c3)S(=O)(=O)C2c2ccccc2)cc1 (centres undefined) | > 100 | > 100 | > 100 | 56.6 | > 100 | > 100 | > 100 | > 100 | > 100 | > 100
17 | COC(=O)c1ccc(C(=O)NC(Cc2ccc(Oc3cc(CC(NC(=O)c4ccccc4C(=O)OC)C(=O)OC)ccc3OC)cc2)C(=O)OC)cc1 (centres undefined) | > 100 | > 100 | > 100 | > 100 | > 100 | > 100 | > 100 | > 100 | > 100 | > 100
18 | Nc1ncnc2c1ccn2C/C=C\CO | > 100 | > 100 | > 100 | > 100 | > 100 | > 100 | > 100 | > 100 | > 100 | > 100
19 | O=c1[nH]c2c(nc1NC13CC4CC(CC(C4)C1)C3)c(=O)oc1ccccc12 | > 100 | > 100 | > 100 | > 100 | > 100 | > 100 | > 100 | > 100 | > 100 | > 100
20 | CC1(c2cccs2)CC(c2cccs2)=C(C#N)C(=C(C#N)C#N)N1 (centres undefined) | 48.6 | 32.1 | 27.9 | 33.1 | 32.3 | 35 | 38.8 | 50.2 | 36.5 | 34.8
21 | C=C(CCC/C(C)=C/C=C/[C@]1(C)CCCc2ccoc21)CC(=O)O | > 100 | > 100 | > 100 | > 100 | > 100 | > 100 | > 100 | > 100 | > 100 | > 100
